These results are taken from article PMC6662757, “A small molecule inhibitor of ER-to-cytosol protein dislocation exhibits anti-dengue and anti-Zika virus activity” (Scientific Reports, 2019).

In one test the target is T1, OS9 (Homo sapiens, UniProt Q13438).
T1 construct: endogenous protein in HeLa cells, heated in NP-40 lysate; component of the Hrd1 complex
T1 sequence (Q13438 26-667): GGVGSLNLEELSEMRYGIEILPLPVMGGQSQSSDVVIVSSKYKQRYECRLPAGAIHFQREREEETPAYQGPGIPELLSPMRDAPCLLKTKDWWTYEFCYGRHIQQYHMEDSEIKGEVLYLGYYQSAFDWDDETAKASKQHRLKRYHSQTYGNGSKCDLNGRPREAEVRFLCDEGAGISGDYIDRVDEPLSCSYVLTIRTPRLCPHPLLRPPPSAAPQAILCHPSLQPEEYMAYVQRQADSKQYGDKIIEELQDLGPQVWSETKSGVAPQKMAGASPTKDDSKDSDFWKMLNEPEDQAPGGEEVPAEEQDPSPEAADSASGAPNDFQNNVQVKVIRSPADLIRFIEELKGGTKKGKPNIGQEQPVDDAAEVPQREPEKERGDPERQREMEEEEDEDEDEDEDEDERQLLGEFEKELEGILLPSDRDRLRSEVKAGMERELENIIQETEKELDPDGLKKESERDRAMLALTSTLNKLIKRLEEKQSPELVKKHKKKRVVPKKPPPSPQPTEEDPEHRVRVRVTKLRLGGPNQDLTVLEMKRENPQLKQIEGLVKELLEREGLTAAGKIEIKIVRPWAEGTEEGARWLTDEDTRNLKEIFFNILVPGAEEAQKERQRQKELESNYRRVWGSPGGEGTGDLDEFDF
Put plainly: cellular thermal shift assay (CETSA), immunoblot. Type of test: cell-based. The following applies: HeLa cells treated with 10 µM CP26, 37 °C, 2 h, then lysed in 0.4% NP-40 and heated 3 min; direct target within the Hrd1 complex not defined. (In general: In western blotting, separated proteins are transferred to a membrane and probed.)

The target of a further test is T2, Derlin2 (Homo sapiens, UniProt Q9GZP9).
T2 construct: gene DERL2; endogenous protein in HeLa cells, heated in NP-40 lysate; component of the Hrd1 complex
T2 sequence (Q9GZP9 1-239): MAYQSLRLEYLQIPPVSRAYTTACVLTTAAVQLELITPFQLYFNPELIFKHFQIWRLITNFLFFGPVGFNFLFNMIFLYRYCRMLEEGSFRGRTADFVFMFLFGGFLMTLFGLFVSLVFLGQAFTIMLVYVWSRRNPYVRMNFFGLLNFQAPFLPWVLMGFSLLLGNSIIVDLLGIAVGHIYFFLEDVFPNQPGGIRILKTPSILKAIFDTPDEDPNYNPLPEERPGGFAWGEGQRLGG
Description: cellular thermal shift assay (CETSA), immunoblot. The conditions noted are these: HeLa cells treated with 10 µM CP26, 37 °C, 2 h, then lysed in 0.4% NP-40 and heated 3 min; direct target within the Hrd1 complex not defined. Type of test: cell-based.

For the molecule `Cc1ccc(C=C2C(Cl)=C(Cl)C(Cl)=C2Cl)cc1` [CP26, 1-methyl-4-[(2,3,4,5-tetrachlorocyclopenta-2,4-dien-1-ylidene)methyl]benzene], the thermal stability increase entry was “CP26 selectively increased the thermal stability of Derlin2 and OS9” at OS9; “CP26 selectively increased the thermal stability of Derlin2 and OS9” on Derlin2.
